The values below come from patent US6878736B1, “Histamine H3 receptor ligands” (James Black Foundation Limited, priority 1998, dated 2005).

Structures can show the parent of a compound that is named as a salt.

The target in assay [1] is T1, Histamine H3 receptor (Cavia porcellus, UniProt Q9JI35). Kind of assay: Histamine H3 radioligand binding assay, guinea pig cortex ([3H]-R-α-methylhistamine). The following applies: guinea pig cortex membranes, competition with 1 nM [3H]-R-α-methylhistamine; for Ki: read-out: pKi (Guinea pig cortex) (converted). The procedure:
The compounds of the invention were also tested in a guinea pig cortex binding assay, as follows:
Histamine H3 Radioligand Binding Assay—Guinea Pig Cortex
Male Dunkin Hartley guinea pigs (200-300 g) were used. The whole brain was removed and immediately placed in ice-cold 20 mM Hepes-NaOH buffer (pH7.4 at 21±3° C.). The cortex was dissected, weighed and homogenised in ice-cold 20 mM Hepes-NaOH buffer (pH7.4 at 21±3° C.) (50 ml/guinea-pig cortex) using a polytron (Kinematica AG; PT-DA 3020/2TS, 3×3 s). The homogenate was centrifuged at 100×g for 5 min and the supernatants pooled and stored at 4° C. The pellets were rehomogenised in fresh ice-cold buffer (80 ml) and recentrifuged (100×g for 5 min). The supernatants were pooled and pellets rehomogenised and recentrifuged (100×g for 5 min). All supernatants were pooled and centrifuged at 39,800×g for 12 min at 4° C. The final pellet was resuspended in 20 mM Hepes-NaOH buffer (pH7.4 at 21±3° C.) to a tissue concentration of 7.5 mg.ml^−1, using a teflon-in-glass homogeniser.
Guinea pig cortex membranes (400 μl) were incubated for 165 min at 21±3° C. in a final volume of 500 μl with 20 mM Hepes-NaOH buffer containing [^3H]-R-α-methylhistamine (50 μl; 1 nM) and competing compound. Total and non-specific binding of [^3H]-R-α-methylhistamine were defined using 50 μl of buffer and 50 μl of 10 μM thioperamide, respectively. The assay was terminated by rapid filtration through Whatman GF/B filters, presoaked (2 hr) in 0.1% polyethyleneimine, using a Brandell Cell Harvester. The filters were washed (3×3 ml) with ice-cold 50 mM Tris-HCl (pH6.9 at 21±3° C.), transferred into scintillation vials, 5 ml liquid scintillation cocktail was added and after 4 hours the bound radioactivity was determined by counting (4 min) in a Beckman liquid scintillation counter.
Data are analysed using GraphPad prism and the general equation for a competition curve with variable Hill slope (nH). [formula] where • X is the log concentration of competing compound, • Y is the binding obtained at each concentration of X, • pIC50 is the concentration of the competitor required to compete for half of the specific binding.
The IC50 is converted to the K1 using the Cheng Prusoff equation, K1=IC50/(1+(L/KD)) where • IC50 is the concentration of competitor required to compete for half the specific binding, • L is the radioligand concentration used, • KD is the equilibrium dissociation constant for the radioligand determined by saturation experiments.

Assay [2] has as its target T1, Histamine H3 receptor. Kind of assay: Histamine H3 functional assay, guinea pig ileum (ileal longitudinal muscle, myenteric plexus). Also noted: species or system tissue. To be noted: antagonist affinity from rightward shift of R-(α)-methylhistamine E/[A] curves (Schild), typical variance ±0.15 log units; for Kb: read-out: pKb (Guinea pig ileum) (converted). As for the experimental part:
• 1. J. Med. Chem 1994, 314. • 2. WO 97/29092 Histamine H3 Functional Assay—Guinea Pig Ileum
The biological activity of the compounds of the examples was measured using the ileal longitudinal muscle, myenteric plexus assay described by Paton and Aboo Zar (J. Physiol. 1968, 194, 13-33). Male Dunkin-Hartley guinea pigs (250-300 g) were employed. Briefly, a 50 cm portion of ileum proximal to the caecum was removed, after discarding the terminal 20 cm. Ileal segments (3 cm) were cleaned by passing Krebs-Henseleit buffer containing 3 μM mepyramine gently through the ileum using a Pasteur pipette (size: 13.8 cm length, 0.65 cm diameter). To avoid unnecessary damage to the tissue, Krebs-Henseleit buffer was passed through the ileal segment, while it was lying horizontally on a petri dish. Therefore, the ileum was not over-distended and the buffer flowed through with ease. Each segment was then passed over a Pasteur pipette and the longitudinal muscle layer and adhering myenteric plexus was teased away using moist cotton wool, by stroking tangentially away from the mesenteric attachment. The tissues were suspended in 20 ml organ baths containing Krebs-Henseleit buffer at 37±1° C. and gassed with […]. The tissues were ligated to two parallel stainless steel wires, situated between two platinum electrodes (0.76 cm length, 0.06 cm diameter). All measurements were recorded isometrically (Grass FTO3 transducer). Following an initial loading tension of 1 g, the tissues were stimulated with electrical pulses at a frequency of 0.1 Hz and a pulse duration of 0.5 msec, as described by Kosterlitz & Watt (Br. J. Pharmacol. 1968, 266276). Initially, the tissues were stimulated at supramaximal (1.3 fold times maximal) voltage for a period of 30 min and then the tissues were washed and re-stimulated. A “sighter dose” of the selective histamine H3-receptor agonist, R-(α)-methylhistamine (0.3 μM) (Arrang et al. Nature, 1987, 117-123), was administered. Upon generation of response, the “sighter dose” was removed from the tissues by “washout” (6 washes over 60 min) and during this period the electrical stimulation was switched off. The tissues were then re-stimulated and allowed to stabilise prior to the addition of drug treatments, which were allocated on a randomised block basis to the organ baths. Following the incubation period, a single cumulative E/[A] curve was obtained. The experimental E/[A] curve data was expressed as the percentage inhibition of the peak height of electrically-stimulated contraction. Antagonist affinity values were calculated from the degree of rightward shift of the R-(α)-methylhistamine E/[A] curves using Schild's methods (Arunlakshana & Schild Br. J. Pharmacol. 1959, 48-58). Typical variance in this assay is ±0.15 log units.

T1 sequence (Q9JI35 whole entry): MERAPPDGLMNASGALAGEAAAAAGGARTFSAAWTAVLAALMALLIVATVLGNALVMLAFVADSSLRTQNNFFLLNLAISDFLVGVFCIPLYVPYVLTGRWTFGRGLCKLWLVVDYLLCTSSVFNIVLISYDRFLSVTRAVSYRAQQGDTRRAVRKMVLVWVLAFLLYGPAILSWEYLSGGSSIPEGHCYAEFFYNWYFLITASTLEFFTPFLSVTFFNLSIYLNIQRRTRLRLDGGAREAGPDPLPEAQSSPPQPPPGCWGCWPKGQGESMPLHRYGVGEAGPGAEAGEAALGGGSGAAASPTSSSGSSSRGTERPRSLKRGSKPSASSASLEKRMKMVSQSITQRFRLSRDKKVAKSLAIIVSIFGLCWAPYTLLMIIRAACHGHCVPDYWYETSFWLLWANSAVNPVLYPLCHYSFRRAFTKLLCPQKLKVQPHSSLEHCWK

As to `N=C(NCCCN1CCCC1)NCCC12CC3CC(CC(C3)C1)C2` [Example 33, N-(2-Adamantan-1-yl-ethyl)-N′-(3-pyrrolidin-1-yl-propyl)-guanidine bis-hydrochloride], the Ki at Histamine H3 receptor [1] was 0.0794 µM. Further, the Kb on Histamine H3 receptor [2] is 0.2 µM.
The like results for `CN1CCC[C@H]1CCCNS(=O)(=O)Cc1ccccc1` [Example 100, N-(3-(1-Methyl-pyrrolidin-2S-yl)-propyl)-phenyl-methanesulfonamide] were, in that order, 0.2 µM and 0.501 µM.
The like results for `CN1CCC[C@H]1CCNS(=O)(=O)NCc1ccc(Cl)cc1` [Example 115, N-(4-Chlorobenyl)-N′-(2-(1-methyl-pyrrolidin-2S-yl)-ethyl)-sulfamide] were, in that order, 0.501 µM and 0.398 µM.
As to `CN1CCC[C@H]1CCCNS(=O)(=O)c1ccc2ccccc2c1` [Example 91, N-(3-(1-Methyl-pyrrolidin-2S-yl)-propyl)-2-naphthalenesulfonamide], the Ki at Histamine H3 receptor [1] was 0.126 µM. Also, the Kb at Histamine H3 receptor [2] is 0.501 µM.
On the same counts, the results for `N=C(NCCCN1CCCC1)NCCCC12CC3CC(CC(C3)C1)C2` [Example 34, N-(3-Adamantan-1-yl-propyl)-N′-(3-pyrrolidin-1-yl-propyl)-guanidine bis-hydrochloride] are 0.316 µM and 0.316 µM.
The like results for `O=S(=O)(NCCCN1CCCC1)c1ccc2ccccc2c1` [Example 82, N-(3-Pyrrolidin-1-yl-propyl)-2-naphthalenesulfonamide] were, in that order, 0.316 µM and 1 µM.
On to `CN1CCC[C@H]1CCCNS(=O)(=O)NCc1ccc(I)cc1` [Example 114, N-(4-Iodobenzyl)-N′-(3-(1-methyl-pyrrolidin-2S-yl)-propyl)-sulfamide], for which, on Histamine H3 receptor [1], the Ki is 0.316 µM. In addition, the Kb at Histamine H3 receptor [2] was 0.1 µM.
As for `N=C(N)N(CCCCCCN1CCCC1)Cc1ccc(Cl)cc1` [Example 70, N-(4-Chlorobenzyl)-N-(6-pyrrolidin-1-yl-hexyl)-guanidine bis-hydrochloride], the Ki on Histamine H3 receptor [1] is 0.00501 µM. At Histamine H3 receptor [2], the Kb was 0.00398 µM.
On the same counts, the results for `CN1CCCC1CCCCS(=O)(=O)NCc1ccc(Cl)cc1` (stereo not drawn) [Example 136, N-(4-Chlorobenzyl)-4-(1-methyl-pyrrolidin-2S-yl)-butanesulfonamide] are 0.316 µM and 0.316 µM.
Take `Cl.Cl.N=C(NCCCCCCN1CCCC1)NCC12CC3CC(CC(C3)C1)C2` [Example 77, N-Adamantan-1-yl-methyl-N-(6-pyrrolidin-1-yl-hexyl)-guanidine bis-hydrochloride]: the “pKi (Guinea pig cortex)” value at Histamine H3 receptor [1] (bis-hydrochloride) stood at 8.2. Besides, the “pKb (Guinea pig ileum)” value on Histamine H3 receptor [2] turned out to be 8.0.
Regarding `O=S(=O)(NCCN1CCCCC1)c1ccc2ccccc2c1` [Example 84, N-(2-Piperidin-1-yl-ethyl)-2-naphthalenesulfonamide], at Histamine H3 receptor [1], the Ki was 0.501 µM. Further, the Kb on Histamine H3 receptor [2] was 0.794 µM.
On the same counts, the results for `C[C@H](NC(=N)NCCCCN1CCCC1)C1CCCCC1` [Example 45, N-(1(S)-Cyclohexyl-ethyl)-N′(4-pyrrolidin-1-yl-butyl)-guanidine bis-hydrochloride] are 0.00398 µM and 0.0316 µM.
The like results for `CN1CCC[C@H]1CCCNS(=O)(=O)Cc1ccc(Br)cc1` [Example 101, N-(3-(1-Methyl-pyrrolidin-2S-yl)-propyl)-(4-bromophenyl)-methanesulfonamide] were, in that order, 0.251 µM and 1 µM.
Take `N=C(NCCCCc1ccccc1)NCCCN1CCCC1` [Example 22, N-(4-Phenylbutyl)-N′-(3-pyrrolidin-1-yl-propyl)-guanidine bis-hydrochloride]: the Ki at Histamine H3 receptor [1] was 0.0794 µM. Besides, the Kb at Histamine H3 receptor [2] was 0.2 µM.
On the same counts, the results for `N=C(NCCCN1CCCC1)NCc1cccc(Br)c1` [Example 10, N-(3-Bromobenzyl)-N′-(3-pyrrolidin-1-yl-propyl)-guanidine bis-hydrochloride] are 0.0251 µM and 0.316 µM.
In the case of `COc1ccc(CNC(=N)NCCCN2CCCC2)cc1Br` [Example 7, N-(3-Bromo-4-methoxy-benzyl)-N′-(3-pyrrolidin-1-yl-propyl)-guanidine bis-hydrochloride], at Histamine H3 receptor [1], the Ki was 0.0398 µM. Besides, the Kb at Histamine H3 receptor [2] is 0.398 µM.
As for `Cl.Cl.N=C(NCCCCCN1CCCC1)NCC12CC3CC(CC(C3)C1)C2` [Example 30, N-Adamantan-1-yl-methyl-N′-(5-pyrrolidin-1-yl-pentyl)-guanidine bis-hydrochloride], the “pKi (Guinea pig cortex)” value at Histamine H3 receptor [1] is given as 8.5. The “pKb (Guinea pig ileum)” value at Histamine H3 receptor [2] was 7.9.
Consider `CN1CCC[C@H]1CCCNS(=O)(=O)NCC1CCCCC1` [Example 110, N-Cyclohexyl-methyl-N′-(3-(1-methyl-pyrrolidin-2S-yl)-propyl)-sulfamide], for which, at Histamine H3 receptor [1], the Ki is 0.501 µM. Moreover, on Histamine H3 receptor [2], the Kb is 2.51 µM.
Take `Cl.Cl.N=C(NCCCCCN1CCCCCC1)NCC12CC3CC(CC(C3)C1)C2` [Example 61, N-Adamantan-1-yl-methyl-N′-(5-azepan-1-yl-pentyl)-guanidine bis-hydrochloride]: the “pKi (Guinea pig cortex)” value on Histamine H3 receptor [1] was found to be 8.1. Besides, the “pKb (Guinea pig ileum)” value on Histamine H3 receptor [2] is recorded as 7.8.
On the same counts, the results for `Cl.Cl.N=C(NCCCN1CCCC1)NCc1ccc2ccccc2c1` [Example 4, N-Naphthalen-2-yl-methyl-N′-(3-pyrrolidin-1-yl-propyl)-guanidine bis-hydrochloride] are 7.1 and 6.5.
The like results for `Cl.Cl.N=C(NCCCN1CCCC1)NCc1ccc(-c2ccccc2)cc1` [Example 12, N-Biphenyl-4-yl-methyl-N′-(3-pyrrolidin-1-yl-propyl)-guanidine bis-hydrochloride] were, in that order, 6.2 and 6.3.
As for `N=C(N)N(CCCCCCN1CCCC1)Cc1ccc(Br)cc1` [Example 74, N-(4-Bromobenzyl)-N-(6-pyrrolidin-1-yl-hexyl)-guanidine bis-hydrochloride], the Ki on Histamine H3 receptor [1] was 0.00794 µM. Moreover, the Kb on Histamine H3 receptor [2] was 0.0126 µM.
The like results for `CN1CCC[C@H]1CCCNS(=O)(=O)NCc1ccc(Br)cc1` [Example 113, N-(4-Bromobenzyl)-N′-(3-(1-methyl-pyrrolidin-2S-yl)-propyl)-sulfamide] were, in that order, 0.1 µM and 0.2 µM.
